According to US20030176442A1, “Treatment of diabetic ulcers” (priority 2000, published 2003):

System: diabetic foot ulcer
Assay: anecdotal report: insulin-dependent diabetic patient with diabetic foot ulcer treated with sildenafil
Type: in vivo, human
Conditions: one patient
Text: The efficacy of the cGMP PDE5 inhibitors in treating neuropathy in human patients is illustrated by the following anecdotal report. The patient was an insulin-dependent diabetic who had been suffering from erectile dysfunction and who subsequently developed a diabetic foot ulcer. During treatment of their erectile dysfunction with sildenafil it was noted that their foot ulcer, which they had had for approximately two years, was healing. The patient had been through various courses of treatment with minimal results. They had seen vascular surgeons, podiatrists and had visited wound care clinics. Ultimately, they were hopitalised for approximately one month on IV antibiotics etc, and the threat was very real that the patient was going to require a below-the-knee amputation. At times the ulcer would appear to be healing only to re-occur, returning to its pre-treatment size and depth. […] The patient was instructed to continue taking 50 mg of Sildenafil once a day.

## CCCc1nn(C)c2c(=O)[nH]c(-c3cc(S(=O)(=O)N4CCN(C)CC4)ccc3OCC)nc12 [Sildenafil, 5-[2-ethoxy-5-(4-methylpiperazin-1-ylsulphonyl)-phenyl]-1,6-dihydro-1-methyl-3-propylpyrazolo [4,3-d]pyrimidine-7-one]
Ulcer present approximately two years, 50 mg of Sildenafil once a day
  outcome of the diabetic foot ulcer: complete resolution of the diabetic foot ulcer within one month
Sildenafil treatment begun for erectile dysfunction
  ulcer size after start of treatment: decreasing in size
Same treatment (50 mg once a day) continued for the past two years
  re-occurrence of ulcer on continued treatment: without re-occurrence
